Measurements from patent publication US20220378707A1, “1-(((2S,3S,4S)-3-ETHYL-4-FLUORO-5-OXOPYRROLIDIN-2-YL)METHOXY)-7-METHOXYISOQUINOLINE-6-CARBOXAMIDE COMBINATIONS AND ORAL DOSAGE FORMS” (Pfizer Inc., priority 2019, published 2022).

Legend:
[1] = Particle size of PF-06650833 by milling process; type: physicochemical; settings: PF-06650833 particles
[2] = system: human primary cell-based systems; assay: BioMAP panel of 12 systems; settings: BioMAP profile, PF-06651600 200-5400 nM
Excerpt: (§1) The BioMAP systems consist of human primary cell-based systems designed to model different aspects of the human body in an in vitro format. The 12 systems tested characterized the test compounds across a broad set of systems modeling various human disease states. BioMAP systems were constructed with one or more primary cell types from healthy human donors, with stimuli (such as cytokines or growth factors) added to capture relevant signaling networks that naturally occur in human tissue or pathological conditions. Vascular biology was modeled in both a Th1 (3C system) and a Th2 (4H system) inflammatory environment, as well as in a Th1 inflammatory state specific to arterial smooth muscle cells (CASM3C system). Additional systems recapitulated aspects of the systemic immune response that included monocyte-driven Th1 inflammation (LPS system) or T cell stimulation (SAg system), chronic Th1 inflammation driven by macrophage activation (IMphg system) and the T cell-dependent activation of B cells that occurs in germinal centers (BT system). The BE3C system (Th1) and the BF4T system (Th2) represented airway inflammation of the lung, while the MyoF system modeled myofibroblast-lung tissue remodeling. Lastly, skin biology was addressed in the KF3CT system modeled Th1 cutaneous inflammation and the HDF3CGF system modeled wound healing.
(§2) All cells were from a pool of multiple donors (n=2-6), commercially purchased and handled according to the recommendations of the manufacturers. Human blood derived CD14+ monocytes were differentiated into macrophages in vitro before being added to the IMphg system. Abbreviations were used as follows: human umbilical vein endothelial cells (HUVEC), peripheral blood mononuclear cells (PBMC), human neonatal dermal fibroblasts (HDFn), B cell receptor (BCR), T cell receptor (TCR) and toll-like receptor (TLR). Cell types and stimuli used in each system were as follows:
(§3) 3C system [HUVEC+(IL-1β, TNFα and IFNγ)]; 4H system [HUVEC+(IL-4 and histamine)]; LPS system [PBMC and HUVEC+LPS (TLR4 ligand)]; SAg system [PBMC and HUVEC+T cell receptor (TCR) ligands]; BT system [CD19+B cells and PBMC+(α-IgM and TCR ligands)]; BF4T system [bronchial epithelial cells and HDFn+(TNFα and IL-4)]; BE3C system [bronchial epithelial cells+(IL-1p, TNFα and IFNγ)]; CASM3C system [coronary artery smooth muscle cells+(IL-1p, TNFα and IFNγ)]; HDF3CGF system [HDFn+(IL-1β, TNFα, IFNγ, EGF, bFGF and PDGF-BB)]; KF3CT system [keratinocytes and HDFn+(IL-1β, TNFα and IFNγ)]; MyoF system [differentiated lung myofibroblasts+(TNFα and TGFβ)]; and IMphg system [HUVEC and M1 macrophages+Zymosan (TLR2 ligand)].
(§4) Systems were derived from either single cell types or co-culture systems. Adherent cell types were cultured in 96 or 384-well plates until confluence, followed by the addition of PBMC (SAg and LPS systems). The BT system consisted of CD19+B cells co-cultured with PBMC and stimulated with a BCR activator and low levels of TCR stimulation. Test agents were prepared in DMSO (final concentration <0.1%) and were added 1 hour before stimulation, and remained in culture for 24 hours or as otherwise indicated (48-hrs, MyoF system; 72-hrs, BT system (soluble readouts); 168-hrs, BT system (secreted IgG)). Each plate contained drug controls (e.g., legacy control test agent colchicine at 1.1 μM), negative controls (e.g., non-stimulated conditions) and vehicle controls (e.g., 0.1% DMSO) appropriate for each system. Direct ELISA was used to measure biomarker levels of cell-associated and cell membrane targets. Soluble factors from supernatants were quantified using either HTRF® detection, bead-based multiplex immunoassay or capture ELISA. Overt adverse effects of test agents on cell proliferation and viability (cytotoxicity) were detected by sulforhodamine B (SRB) staining, for adherent cells, and alamarBlue® reduction for cells in suspension. […]

[3] = Combination oral pharmacokinetic study of PF-06651600 and PF-06650833 in rat; settings: male Wistar Han rat, PF-06651600 10 and 50 mg/kg, PF-06650833 30 and 100 mg/kg
Protocol: Doses of 1-((2S,5R)-5-((7H-pyrrolo[2,3-d]pyrimidin-4-yl)amino)-2-methylpiperidin-1-yl)prop-2-en-1-one were 10 and 50 mg/kg and 1-(((2S,3S,4S)-3-ethyl-4-fluoro-5-oxopyrrolidin-2-yl)methoxy)-7-methoxyisoquinoline-6-carboxamide were 30 and 100 mg/kg in male Wistar Han.

[4] = system: HDFn+(IL-1β, TNFα, IFNγ, EGF, bFGF and PDGF-BB); assay: BioMAP HDF3CGF system; type: cell-based, human; settings: wound healing, Th1-type inflammation; concentrations of FIGS. 12-16
Excerpt: as §1, §2, §3
Systems were derived from either single cell types or co-culture systems. Adherent cell types were cultured in 96 or 384-well plates until confluence, followed by the addition of PBMC (SAg and LPS systems). […] Test agents were prepared in DMSO (final concentration <0.1%) and were added 1 hour before stimulation, and remained in culture for 24 hours or as otherwise indicated (48-hrs, MyoF system; 72-hrs, BT system (soluble readouts); 168-hrs, BT system (secreted IgG)). […] Soluble factors from supernatants were quantified using either HTRF® detection, bead-based multiplex immunoassay or capture ELISA. Overt adverse effects of test agents on cell proliferation and viability (cytotoxicity) were detected by sulforhodamine B (SRB) staining, for adherent cells, and alamarBlue® reduction for cells in suspension.

[5] = system: PBMC and HUVEC+T cell receptor (TCR) ligands; assay: BioMAP SAg system; type: cell-based, human; settings: for Inhibition of biomarker readouts in the SAg system: T cell-driven Th1 vascular inflammation, concentrations of FIGS. 12-16
Excerpt: as §1, §2, §3
Systems were derived from either single cell types or co-culture systems. Adherent cell types were cultured in 96 or 384-well plates until confluence, followed by the addition of PBMC (SAg and LPS systems). The BT system consisted of CD19+B cells co-cultured with PBMC and stimulated with a BCR activator and low levels of TCR stimulation. Test agents were prepared in DMSO (final concentration <0.1%) and were added 1 hour before stimulation, and remained in culture for 24 hours or as otherwise indicated (48-hrs, MyoF system; 72-hrs, BT system (soluble readouts); 168-hrs, BT system (secreted IgG)). Each plate contained drug controls (e.g., legacy control test agent colchicine at 1.1 μM), negative controls (e.g., non-stimulated conditions) and vehicle controls (e.g., 0.1% DMSO) appropriate for each system. Direct ELISA was used to measure biomarker levels of cell-associated and cell membrane targets. Soluble factors from supernatants were quantified using either HTRF® detection, bead-based multiplex immunoassay or capture ELISA. Overt adverse effects of test agents on cell proliferation and viability (cytotoxicity) were detected by sulforhodamine B (SRB) staining, for adherent cells, and alamarBlue® reduction for cells in suspension.

[6] = system: PBMC and HUVEC+LPS (TLR4 ligand); assay: BioMAP LPS system; type: cell-based, human; settings: monocyte-driven Th1 inflammation, concentrations of FIGS. 12-14
Excerpt: as §1, §2, §3, §4

[7] = system: CD19+B cells and PBMC+(α-IgM and TCR ligands); assay: BioMAP BT system; type: cell-based, human; settings: for Inhibition of biomarker readouts in the BT system: T cell dependent B cell activation, concentrations of FIGS. 12-14; for B cell proliferation in the BT system: concentrations of FIGS. 13-14
Excerpt: as §1, §2, §3, §4

[8] = listed as 1-((2S,5R)-5-((7H-Pyrrolo[2,3-d]pyrimidin-4-yl)amino)-2-methylpiperidin-1-yl)pro
[9] = listed as 1-((2S,5R)-5-((7H-pyrrolo[2,3-d]pyrimidin-4-yl)amino)-2-methylpiperidin-1-yl)pro

## CC[C@@H]1[C@H](F)C(=O)N[C@@H]1COc1nccc2cc(C(N)=O)c(OC)cc12 [Fitzmilled, 1-(((2S,3S,4S)-3-Ethyl-4-fluoro-5-oxopyrrolidin-2-yl)methoxy)-7-methoxyisoquinoline-6-carboxamide]
[1]
  Particle size D[4, 3]: 17.0 μm
  Particle size D[v, 0.1]: 2.0 μm
  Particle size D[v, 0.5]: 10.0 μm
  Particle size D[v, 0.9]: 35.0 μm

## CC[C@@H]1[C@H](F)C(=O)N[C@@H]1COc1nccc2cc(C(N)=O)c(OC)cc12 [Jetmilled, 1-(((2S,3S,4S)-3-Ethyl-4-fluoro-5-oxopyrrolidin-2-yl)methoxy)-7-methoxyisoquinoline-6-carboxamide]
[1]
  Particle size D[4, 3]: 4.6 μm
  Particle size D[v, 0.1]: 0.7 μm
  Particle size D[v, 0.5]: 3.9 μm
  Particle size D[v, 0.9]: 9.6 μm

## C=CC(=O)N1C[C@H](Nc2ncnc3[nH]ccc23)CC[C@@H]1C [PF-06651600, 1-((2S,5R)-5-((7H-Pyrrolo[2,3-d]pyrimidin-4-yl)amino)-2-methylpiperidin-1-yl)prop-2-en-1-one]
[2]; PF-06650833 19-500 nM, tofacitinib 37-1000 nM
  Immunomodulatory activities: Decreased Activity: *sIgG, B cell proliferation, T cell proliferation
[2]
  Tissue Remodeling Activities: Decreased Activity: PAI-I
[3]
  Effects of PF-06650833 on the pharmacokinetics of PF-06651600: no significant effects
[4]
  Inhibition of biomarker readouts in the HDF3CGF system: PA-I
[5]; [8]
  Inhibition of biomarker readouts in the SAg system: IL-8
[5]; [9]
  Inhibition of biomarker readouts in the SAg system: sIL-s8 levels were reduced
[5]; concentrations of FIGS. 13-14
  Proliferation of T cells in the SAg system: inhibited
[6]; [8]
  Inhibition of biomarker readouts in the LPS system: TNFα
[6]; [9]
  Inhibition of biomarker readouts in the LPS system: sTNFα levels were reduced
[7]; [8]
  Inhibition of biomarker readouts in the BT system: sIgG, sIL-17A, sIL-17F, sIL-6, and TNFα
  B cell proliferation in the BT system: inhibited
[7]; [9]
  Inhibition of biomarker readouts in the BT system: sIgG, sIL-17A, sIL-17F, sIL-6, and sTNFα
  B cell proliferation in the BT system: B cell anti-proliferative activity

## CC[C@@H]1[C@H](F)C(=O)N[C@@H]1COc1nccc2cc(C(N)=O)c(OC)cc12 [Unmilled, 1-(((2S,3S,4S)-3-Ethyl-4-fluoro-5-oxopyrrolidin-2-yl)methoxy)-7-methoxyisoquinoline-6-carboxamide]
[1]
  Particle size D[4, 3]: 28.4 μm
  Particle size D[v, 0.1]: 4.6 μm
  Particle size D[v, 0.5]: 22.3 μm
  Particle size D[v, 0.9]: 61.6 μm
